Data reported in article PMC11082923 (Journal of Agricultural and Food Chemistry, 2024).
Where two headings read alike, the source gives them in different places.

What was measured:
TAS2R16 [1] = molecular target: T1, TAS2R16 (Homo sapiens, UniProt Q9NYV7); assay: Fluo4-AM calcium imaging; assay type: cell-based
T1 sequence (Q9NYV7 1-291): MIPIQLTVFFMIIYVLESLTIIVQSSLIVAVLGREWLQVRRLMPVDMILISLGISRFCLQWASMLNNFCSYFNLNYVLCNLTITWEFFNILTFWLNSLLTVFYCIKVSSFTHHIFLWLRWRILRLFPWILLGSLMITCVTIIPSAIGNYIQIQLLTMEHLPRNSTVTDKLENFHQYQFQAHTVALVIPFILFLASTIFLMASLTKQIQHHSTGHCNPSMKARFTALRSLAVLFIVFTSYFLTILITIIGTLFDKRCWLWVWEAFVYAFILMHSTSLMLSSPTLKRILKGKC

TAS2R16 [2] = molecular target: T1, TAS2R16; assay: Fluo4-AM calcium imaging; assay type: cell-based; conditions: agonist; C1 buffer with or without NaCl ([…] NMDG), pH […]

EC50 (TAS2R16 [1]) [µM]	Compound	EC50 (TAS2R16 [2])
1280 ± 180	OCc1ccccc1O[C@@H]1O[C@H](CO)[C@@H](O)[C@H](O)[C@H]1O [D-salicin]	
	O=Cc1ccccc1O[C@@H]1O[C@H](CO)[C@@H](O)[C@H](O)[C@H]1O [Helicin]	signal saturation of TAS2R16 was achieved with phenyl-βD-glucopyranoside and helicin
	OC[C@H]1O[C@@H](Oc2ccccc2)[C@H](O)[C@@H](O)[C@@H]1O [phenyl-βD-glucopyranoside]	signal saturation of TAS2R16 was achieved with phenyl-βD-glucopyranoside and helicin
